Results from paper PMC9317718 (Molecules, 2022).

Columns and labels:
[1] = in vitro; conditions: for CLint: microsomes
Excerpt: Km is defined as the characteristic constant of the enzyme, which represent the […] (Vmax). The values of Vmax and Km are based on the nonlinear regression analysis of the Michaelis-Menten equation, V = Vmax × S/(Km + S). The kinetic parameters were adopted through the following parameters: S, Vmax, and V. All of these parameters represented the substrate concentration, the maximum velocity of metabolism, and the velocity of metabolism, respectively. CLint (the different ability of the organism in eliminating the particular chemical substances) is defined as Vmax/Km, which reflected the different ability of the organism in eliminating the particular chemical substances.

[2] = biological target: T1, CYP2E1 (Homo sapiens, UniProt P05181); conditions: recombinant enzyme, 5 μM, pH 7.4
[3] = biological target: T2, CYP1A2 (Rattus norvegicus, UniProt P04799); conditions: in vivo
T2 sequence (P04799 1-513): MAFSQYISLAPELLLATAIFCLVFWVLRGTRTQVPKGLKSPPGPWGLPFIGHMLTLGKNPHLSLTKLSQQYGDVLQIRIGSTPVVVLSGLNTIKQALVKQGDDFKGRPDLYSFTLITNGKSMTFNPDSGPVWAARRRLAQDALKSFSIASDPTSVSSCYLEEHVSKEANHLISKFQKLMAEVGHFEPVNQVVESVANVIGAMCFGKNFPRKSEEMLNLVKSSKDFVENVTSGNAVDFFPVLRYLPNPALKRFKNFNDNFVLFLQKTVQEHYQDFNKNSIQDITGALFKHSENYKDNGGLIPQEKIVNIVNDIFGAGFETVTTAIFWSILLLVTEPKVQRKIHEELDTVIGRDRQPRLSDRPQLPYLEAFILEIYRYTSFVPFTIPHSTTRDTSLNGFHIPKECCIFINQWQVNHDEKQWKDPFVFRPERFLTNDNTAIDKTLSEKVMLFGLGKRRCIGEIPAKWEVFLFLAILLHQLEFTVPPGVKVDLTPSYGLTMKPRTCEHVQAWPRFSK

[4] = biological target: T3, CYP3A4 (Homo sapiens, UniProt P08684); test: Degradation in single recombinant CYP3A4; format: in vitro ADME; set-up: purchased RILD (Research Institute for Liver Diseases Co., Ltd., Shanghai, China); conditions: 5 μM compound, single enzyme CYP3A4; for speed constant k in CYP3A4: t in min; for half-life at 5 μM: human, recombinant CYP3A4, pH 7.4, read-out: t1/2 in CYP3A4
Target sequence in this assay (P08684 whole entry): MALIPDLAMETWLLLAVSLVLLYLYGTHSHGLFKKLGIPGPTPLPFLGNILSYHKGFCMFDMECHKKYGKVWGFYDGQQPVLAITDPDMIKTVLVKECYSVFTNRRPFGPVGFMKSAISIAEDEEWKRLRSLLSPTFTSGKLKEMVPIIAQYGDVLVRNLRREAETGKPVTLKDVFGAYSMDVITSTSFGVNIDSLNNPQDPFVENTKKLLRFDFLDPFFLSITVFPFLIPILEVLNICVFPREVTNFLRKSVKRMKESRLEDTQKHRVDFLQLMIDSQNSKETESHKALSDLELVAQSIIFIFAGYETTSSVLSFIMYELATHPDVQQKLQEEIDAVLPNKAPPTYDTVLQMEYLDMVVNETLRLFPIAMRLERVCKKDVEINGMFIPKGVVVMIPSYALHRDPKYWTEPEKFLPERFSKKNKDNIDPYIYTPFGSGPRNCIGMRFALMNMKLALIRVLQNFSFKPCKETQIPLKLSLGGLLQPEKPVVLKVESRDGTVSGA

[5] = in vitro; conditions: male, Sprague-Dawley, rat, microsomes, pH 7.4
[6] = tested on: CYP3A4; conditions: rat, in vivo
[7] = biological target: T4, CYP2C19 (Homo sapiens, UniProt P33261); test: in vitro; conditions: recombinant enzyme, pH 7.4
[8] = biological target: T4, CYP2C19; conditions: recombinant enzyme, 5 μM, pH 7.4
[9] = biological target: T1, CYP2E1; test: in vitro; conditions: recombinant enzyme, pH 7.4
[10] = biological target: T5, CYP1A2 (Homo sapiens, UniProt P05177); test: Degradation in single recombinant CYP1A2; format: in vitro ADME; conditions: 5 μM compound, single enzyme CYP1A2; for speed constant k in CYP1A2: t in min; for half-life at 5 μM: human, recombinant CYP1A2, pH 7.4, read-out: t1/2 in CYP1A2
T5 construct: purchased RILD (Research Institute for Liver Diseases Co., Ltd., Shanghai, China)
T5 sequence (P05177 whole entry): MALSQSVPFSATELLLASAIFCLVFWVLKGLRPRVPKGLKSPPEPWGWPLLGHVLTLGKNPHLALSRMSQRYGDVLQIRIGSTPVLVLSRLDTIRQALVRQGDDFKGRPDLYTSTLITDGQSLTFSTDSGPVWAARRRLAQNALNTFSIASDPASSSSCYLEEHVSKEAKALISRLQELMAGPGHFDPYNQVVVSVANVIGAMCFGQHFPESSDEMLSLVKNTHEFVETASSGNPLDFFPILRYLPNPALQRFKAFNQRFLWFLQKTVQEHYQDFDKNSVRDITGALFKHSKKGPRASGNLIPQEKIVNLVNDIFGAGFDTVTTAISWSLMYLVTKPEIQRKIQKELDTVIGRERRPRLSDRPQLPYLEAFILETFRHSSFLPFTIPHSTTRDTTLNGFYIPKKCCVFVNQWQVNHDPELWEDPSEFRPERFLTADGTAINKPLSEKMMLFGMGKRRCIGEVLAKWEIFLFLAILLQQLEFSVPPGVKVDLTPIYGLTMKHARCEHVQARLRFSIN

[11] = biological target: T3, CYP3A4; test: in vitro; conditions: pH 7.4, probe testosterone 0.01 mM
Target sequence in this assay (P08684 2-503): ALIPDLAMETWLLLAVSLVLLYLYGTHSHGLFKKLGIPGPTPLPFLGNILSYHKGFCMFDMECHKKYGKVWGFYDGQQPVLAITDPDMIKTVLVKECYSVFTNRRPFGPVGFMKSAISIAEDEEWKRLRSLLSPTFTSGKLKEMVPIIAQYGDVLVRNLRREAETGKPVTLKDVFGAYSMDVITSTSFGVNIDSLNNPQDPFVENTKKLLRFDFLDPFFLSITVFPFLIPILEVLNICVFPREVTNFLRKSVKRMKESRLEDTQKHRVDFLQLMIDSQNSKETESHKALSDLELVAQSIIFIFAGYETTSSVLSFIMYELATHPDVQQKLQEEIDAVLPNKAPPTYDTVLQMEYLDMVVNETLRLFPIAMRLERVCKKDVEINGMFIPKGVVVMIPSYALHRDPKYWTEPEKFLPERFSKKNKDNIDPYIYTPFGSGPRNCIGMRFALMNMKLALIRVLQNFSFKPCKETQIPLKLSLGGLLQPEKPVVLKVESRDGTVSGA

[12] = in vitro; conditions: human, microsomes, pH 7.4
[13] = biological target: T6, CYP1A2 (Homo sapiens, UniProt P05177); test: Inhibition of CYP1A2 activity in vitro (probe phenacetin); format: in vitro ADME; conditions: compound 0-80 μM; probe phenacetin 0.02 mM
T6 sequence (P05177 2-516): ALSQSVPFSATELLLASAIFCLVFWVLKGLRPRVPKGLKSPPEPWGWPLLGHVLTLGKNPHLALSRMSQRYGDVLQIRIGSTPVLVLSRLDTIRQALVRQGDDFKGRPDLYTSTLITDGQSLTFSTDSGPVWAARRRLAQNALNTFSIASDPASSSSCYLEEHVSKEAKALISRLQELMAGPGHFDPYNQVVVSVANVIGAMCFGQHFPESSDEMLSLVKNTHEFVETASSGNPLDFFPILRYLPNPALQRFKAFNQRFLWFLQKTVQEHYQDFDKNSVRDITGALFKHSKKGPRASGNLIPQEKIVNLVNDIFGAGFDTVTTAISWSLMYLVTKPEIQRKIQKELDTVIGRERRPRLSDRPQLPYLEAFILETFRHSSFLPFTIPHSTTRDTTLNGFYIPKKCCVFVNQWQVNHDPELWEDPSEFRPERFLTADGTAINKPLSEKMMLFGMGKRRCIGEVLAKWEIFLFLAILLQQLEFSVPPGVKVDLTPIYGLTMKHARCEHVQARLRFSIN
Method: (§1) The mixed probe substrate consisted of testosterone 0.01 mM for CYP3A4, phenacetin 0.02 mM for CYP1A2, chlorzoxazone 0.02 mM for CYP2E1, and omeprazole 0.01 mM for CYP2C19, respectively. […] Other procedure was accorded to above step of 2.6 “Microsomal incubation conditions”.

[14] = biological target: T1, CYP2E1; test: biochemical
Method: as §1

[15] = biological target: T4, CYP2C19; test: biochemical
Method: as §1

[16] = tested on: CYP2C19; conditions: rat liver after 7-days i.g. treatment, low-, medium- and high-dose groups
Method: To investigate the molecular mechanisms in the activity of the CYP enzymes, the level of CYP protein in the liver of rats was examined.
In this study, the grouping and administration methods were as described in the step of “Pharmacokinetic study of the probe substrate in vivo”. On the 8th day, the blood was allowed to drain through the aorta and the liver was excised quickly, […]. The liver tissue was stored at −80 °C until analysis.
Then, a piece of the liver tissue was separately homogenized and lysed in RIPA buffer with 1% proteinase inhibitor phenylmethylsulfonyl fluoride (PMSF). […] The protein levels were quantified by a BCA Assay Kit. The samples were boiled at 100 °C for 10 min. Equal amounts of protein lysates were separated on 10% SDS-polyacrylamide gels by electrophoresis and then transferred onto nitrocellulose membranes. The membranes were blocked in 5% non-fat milk. […] In addition, images were captured using an Odyssey Infra-red Imaging System v3.0.16 (LI-COR Biosciences, Lincoln, NE, USA), and quantified by densitometry scanning using ImageJ Analysis software (National Institutes of Health, Bethesda, MD, USA).

T1 sequence (P05181 whole entry): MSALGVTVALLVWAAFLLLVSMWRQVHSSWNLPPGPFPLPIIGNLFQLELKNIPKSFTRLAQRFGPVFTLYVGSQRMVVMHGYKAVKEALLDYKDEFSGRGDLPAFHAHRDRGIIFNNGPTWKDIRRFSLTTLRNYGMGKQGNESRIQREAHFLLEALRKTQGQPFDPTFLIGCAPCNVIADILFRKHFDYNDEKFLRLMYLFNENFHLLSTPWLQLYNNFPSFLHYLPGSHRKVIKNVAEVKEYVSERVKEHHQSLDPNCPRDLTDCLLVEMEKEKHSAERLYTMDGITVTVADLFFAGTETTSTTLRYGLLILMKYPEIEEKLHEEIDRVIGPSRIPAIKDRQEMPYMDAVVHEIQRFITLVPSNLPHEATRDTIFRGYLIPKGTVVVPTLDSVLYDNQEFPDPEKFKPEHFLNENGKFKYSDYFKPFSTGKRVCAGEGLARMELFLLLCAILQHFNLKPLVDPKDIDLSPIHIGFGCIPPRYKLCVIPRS
T4 sequence (P33261 whole entry): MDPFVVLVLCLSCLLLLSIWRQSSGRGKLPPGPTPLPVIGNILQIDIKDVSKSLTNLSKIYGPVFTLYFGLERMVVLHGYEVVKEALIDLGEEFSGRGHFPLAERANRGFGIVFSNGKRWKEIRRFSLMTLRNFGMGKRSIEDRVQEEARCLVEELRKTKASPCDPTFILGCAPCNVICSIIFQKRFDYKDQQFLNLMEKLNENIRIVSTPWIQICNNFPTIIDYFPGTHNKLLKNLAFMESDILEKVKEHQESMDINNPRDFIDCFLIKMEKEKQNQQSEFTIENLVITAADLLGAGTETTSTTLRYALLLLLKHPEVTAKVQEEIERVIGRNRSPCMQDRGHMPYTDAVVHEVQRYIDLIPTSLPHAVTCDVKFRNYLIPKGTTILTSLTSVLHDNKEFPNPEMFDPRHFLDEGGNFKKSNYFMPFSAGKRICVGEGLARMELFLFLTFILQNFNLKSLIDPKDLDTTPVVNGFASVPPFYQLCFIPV

In the case of `COc1cc(/C=C/C(=O)CC(=O)/C=C/c2ccc(O)c(OC)c2)ccc1O` [curcumin], the Km at 15 min ([1]; Sprague-Dawley, rat, pH 7.4) is reported as 48.5 ± 8.27 µM, the Km at 15 min ([1]; human) is reported as 16.6 ± 4.3 µM and the CLint ([1]; human) is reported as 0.2435 mL/min/(mg of Protein). For the same compound, the CLint ([1]; rat) was 0.3226 mL/min/(mg of Protein), the “speed constant k in CYP2E1” value [2] was 0.01 ± 0.0024 and the “metabolic rate of phenacetin with increasing dose of compound” value [3] was “decreased”. The “speed constant k in CYP3A4” value [4] was 0.018 ± 0.0035, the half-life at 5 μM [4] was 38.5 min and the half-life [5] was 22.4 min. The “metabolic rate of midazolam with increasing dose of compound” value [6] was “decreased”, the half-life at 5 μM [7] was 63 min and the “speed constant k in CYP2C19” value [8] was 0.011 ± 0.0017. The half-life at 5 μM [9] was 69.3 min, the “speed constant k in CYP1A2” value [10] was 0.0023 ± 0.0006 and the half-life at 5 μM [10] was 301 min. The IC50 at 120 min [11] was 24.3 µM, the half-life [12] was 173 min and the IC50 [13] was over 80 µM. For the same compound, the IC50 [14] was over 80 µM, the IC50 [15] was 11.9 µM and the “protein level of CYP2C19 vs control in vivo” value [16] was “decreased”.

In the case of `CC(C)=C1C/C=C(\C)CC/C=C(\C)CC1=O` [germacrone], the Km at 15 min ([1]; Sprague-Dawley, rat, pH 7.4) is reported as 49.6 ± 11.1 µM, the Km at 15 min ([1]; human) is reported as 44.8 ± 5.47 µM and the CLint ([1]; human) is reported as 0.3298 mL/min/(mg of Protein). The CLint ([1]; rat) was 0.2763 mL/min/(mg of Protein), the “speed constant k in CYP2E1” value [2] was 0.01 ± 0.0017 and the “metabolic rate of phenacetin with increasing dose of compound” value [3] was “increased”. For the same compound, the “speed constant k in CYP3A4” value [4] was 0.019 ± 0.0064, the half-life at 5 μM [4] was 36.5 min and the half-life [5] was 18 min. For the same compound, the “metabolic rate of midazolam with increasing dose of compound” value [6] was “increased”, the half-life at 5 μM [7] was 57.8 min and the “speed constant k in CYP2C19” value [8] was 0.012 ± 0.0032. The half-life at 5 μM [9] was 69.3 min, the “speed constant k in CYP1A2” value [10] was 0.008 ± 0.001 and the half-life at 5 μM [10] was 86.6 min. It also gave an IC50 at 120 min [11] of 3.57 µM, a half-life [12] of 16.4 min and an IC50 [13] of 78.1 µM. It also gave an IC50 [14] of over 80 µM and an IC50 [15] of 17.8 µM.
